The compounds below were run against unphosphorylated-BTK kinase domain (UP-BTK), GST-tagged human BTK (389-659aa) (Homo sapiens (Human), UniProt Q06187) (assay: BTK kinase Lanthascreen binding assay). Conditions: Lanthascreen tracer competition, 60 minutes incubation; pIC50 = negative log of the IC50 in molar.
Sequence of unphosphorylated-BTK kinase domain (UP-BTK), GST-tagged human BTK (389-659aa) (Q06187 389-659): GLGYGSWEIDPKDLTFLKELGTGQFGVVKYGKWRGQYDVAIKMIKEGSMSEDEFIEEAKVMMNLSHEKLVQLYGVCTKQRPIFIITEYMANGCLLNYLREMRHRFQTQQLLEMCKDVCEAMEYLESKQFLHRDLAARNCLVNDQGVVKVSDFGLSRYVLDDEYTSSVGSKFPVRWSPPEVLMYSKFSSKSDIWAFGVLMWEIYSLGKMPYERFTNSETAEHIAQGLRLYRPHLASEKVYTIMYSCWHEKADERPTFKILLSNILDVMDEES
Outline: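 Measures how well compounds compete with a fluorescence-labelled tracer for binding to BTK in its unphosphorylated state. IC50 values were fitted and expressed as pIC50 (negative logarithm of the molar IC50).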
C=CC(=O)N1CC[C@@H](O)[C@H](NC(=O)c2sc3nccc4c3c2NC(=O)N4c2ccc(Oc3ccccc3)cc2)C1 [Example 655, N-((3R,4R)-1-Acryloyl-4-hydroxypiperidin-3-yl)-4-oxo-5-(4-phenoxyphenyl)-4,5-dihydro-3H-1-thia-3,5,8-triazaacenaphthylene-2-carboxamide] was tested, and the “BTK_I_binding pIC50” value was 8.0.
With Cc1cc(Oc2ccccc2)ccc1N1C(=O)Nc2c(C(=O)NC3CCN(C#N)CC3)sc3nccc1c23 [Example 872, N-(1-Cyanopiperidin-4-yl)-5-(2-methyl-4-phenoxyphenyl)-4-oxo-4,5-dihydro-3H-1-thia-3,5,8-triazaacenaphthylene-2-carboxamide] the “BTK_I_binding pIC50” value was 7.2.
For Cc1cc(Oc2ccccc2)ncc1N1C(=O)Nc2c(C(=O)N[C@@H]3CCNC3)sc3nccc1c23 (single isomer, unassigned) [Example 702, (R)-5-(*S)-(4-Methyl-6-phenoxypyridin-3-yl)-4-oxo-N-(pyrrolidin-3-yl)-4,5-dihydro-3H-1-thia-3,5,8-triazaacenaphthylene-2-carboxamide], the “BTK_I_binding pIC50” value was 6.8.
In the case of Cc1cc(Oc2ccccc2)ccc1N1C(=O)Nc2c(C(=O)N[C@@H]3CCCN(C(=O)/C=C/CN4CCCC4)C3)sc3nccc1c23 [Example 867, (R,E)-5-(2-Methyl-4-phenoxyphenyl)-4-oxo-N-(1-(4-(pyrrolidin-1-yl)but-2-enoyl)piperidin-3-yl)-4,5-dihydro-3H-1-thia-3,5,8-triazaacenaphthylene-2-carboxamide], the “BTK_I_binding pIC50” value is reported as 7.3.
With Cc1nc(Oc2ccccc2)cnc1N1C(=O)Nc2c(C(=O)N[C@@H]3CCCNC3)sc3nccc1c23 [Example 656, (R)-5-(3-Methyl-5-phenoxypyrazin-2-yl)-4-oxo-N-(piperidin-3-yl)-4,5-dihydro-3H-1-thia-3,5,8-triazaacenaphthylene-2-carboxamide] the “BTK_I_binding pIC50” value was 6.2.
COc1ccc(N2C(=O)Nc3c(C(=O)NC4CCCN(C(=O)/C(C#N)=C/C5CC5)C4)sc4nccc2c34)c(C)c1 (stereo not drawn) [Example 878, (E)-N-(1-(2-Cyano-3-cyclopropylacryloyl)piperidin-3-yl)-5-(4-methoxy-2-methylphenyl)-4-oxo-4,5-dihydro-3H-1-thia-3,5,8-triazaacenaphthylene-2-carboxamide] was tested, and the “BTK_I_binding pIC50” value was 7.1.

Same assay, conditions: pIC50 = negative log of the IC50 in molar; 60 minutes incubation, 50 nM Tracer 236
In the case of CO[C@H]1CNC[C@@H]1NC(=O)c1sc2nccc3c2c1NC(=O)N3c1ccc(Oc2ccccc2)cc1C [Example 245, N-((3S,4S)-4-Methoxypyrrolidin-3-yl)-5-(2-methyl-4-phenoxyphenyl)-4-oxo-4,5-dihydro-3H-1-thia-3,5,8-triazaacenaphthylene-2-carboxamide], the “BTK_I_binding pIC50” value is reported as 6.6.
In the case of Cc1cc(Oc2ccccc2)ccc1N1C(=O)Nc2c(C(=O)N[C@@H]3C[C@@H](F)CN(C)C3)sc3nccc1c23 [Example 160, N-((3R,5R)-5-Fluoro-1-methylpiperidin-3-yl)-5-(2-methyl-4-phenoxyphenyl)-4-oxo-4,5-dihydro-3H-1-thia-3,5,8-triazaacenaphthylene-2-carboxamide], the “BTK_I_binding pIC50” value is reported as 6.6.
Cc1cc(Oc2ccccc2)ccc1N1C(=O)Nc2c(C(=O)NC3CN(C(=O)/C(C#N)=C/C4CC4)C3)sc3nccc1c23 [Example 229, (E)-N-(1-(2-Cyano-3-cyclopropylacryloyl)azetidin-3-yl)-5-(2-methyl-4-phenoxyphenyl)-4-oxo-4,5-dihydro-3H-1-thia-3,5,8-triazaacenaphthylene-2-carboxamide] was tested, and the “BTK_I_binding pIC50” value was 6.7.
For COCC(=O)N1CCC[C@@H](NC(=O)c2sc3nccc4c3c2NC(=O)N4c2ccc(Oc3ccccc3)c(F)c2C)C1 [Example 115, (R)-5-(3-Fluoro-2-methyl-4-phenoxyphenyl)-N-(1-(2-methoxyacetyl)piperidin-3-yl)-4-oxo-4,5-dihydro-3H-1-thia-3,5,8-triazaacenaphthylene-2-carboxamide], the “BTK_I_binding pIC50” value was 7.4.
In the case of COC[C@H](OC)C(=O)N1CCC[C@@H](NC(=O)c2sc3nccc4c3c2NC(=O)N4c2ccc(Oc3ccccc3)cc2C)C1 [Example 142, N—((R)-1-((S)-2,3-Dimethoxypropanoyl)piperidin-3-yl)-5-(2-methyl-4-phenoxyphenyl)-4-oxo-4,5-dihydro-3H-1-thia-3,5,8-triazaacenaphthylene-2-carboxamide], the “BTK_I_binding pIC50” value is reported as 7.2.
C=C(F)C(=O)N1CCC[C@@H](NC(=O)c2sc3nccc4c3c2NC(=O)N4c2ccc(Oc3ccccc3)cc2C)C1 [Example 48, (R)—N-(1-(2-Fluoroacryloyl)piperidin-3-yl)-5-(2-methyl-4-phenoxyphenyl)-4-oxo-4,5-dihydro-3H-1-thia-3,5,8-triazaacenaphthylene-2-carboxamide] was tested, and the “BTK_I_binding pIC50” value was 6.9.
With Cc1cc(Oc2ccccc2)ccc1N1C(=O)Nc2c(C(=O)NC3CC[C@@H](C)N(C)C3)sc3nccc1c23 (mixture of isomers) [Example 92, N-(1,6-Dimethylpiperidin-3-yl)-5-(2-methyl-4-phenoxyphenyl)-4-oxo-4,5-dihydro-3H-1-thia-3,5,8-triazaacenaphthylene-2-carboxamide] the “BTK_I_binding pIC50” value was 6.8.

Same assay, conditions: pIC50 = negative log of the IC50 in molar; 60 minutes incubation, 50 nM Tracer 236; read-out: BTK_I_binding pIC50 (converted)
Compound COc1ccc(N2C(=O)Nc3c(C(=O)N[C@@H]4CCCN(C(=O)/C(C#N)=[13CH]/C5CC5)C4)sc4nccc2c34)c(C)c1 [Example 177, ^13C—(R,E)-N-(1-(2-Cyano-3-cyclopropylacryloyl)piperidin-3-yl)-5-(4-methoxy-2-methylphenyl)-4-oxo-4,5-dihydro-3H-1-thia-3,5,8-triazaacenaphthylene-2-carboxamide] has an IC50 of 39.8 nM.

Same assay, conditions: unphosphorylated-BTK kinase domain, 50 nM Tracer 236, 60 minutes; pIC50 = negative log of the IC50 in molar
For C=CC(=O)N1CCC[C@@H](NC(=O)c2sc3nccc4c3c2NC(=O)N4c2cccc(-c3ccc(F)cc3F)c2)C1 [Example 515, (R)—N-(1-Acryloylpiperidin-3-yl)-5-(2′,4′-difluoro-[1,1′-biphenyl]-3-yl)-4-oxo-4,5-dihydro-3H-1-thia-3,5,8-triazaacenaphthylene-2-carboxamide], the “BTK_I_binding pIC50” value was 7.7.
In the case of C=CC(=O)N1CCC[C@@H](NC(=O)c2sc3nccc4c3c2NC(=O)N4c2ccc(Oc3ccccc3)c(C)c2)C1 [Example 536, (R)—N-(1-Acryloylpiperidin-3-yl)-5-(3-methyl-4-phenoxyphenyl)-4-oxo-4,5-dihydro-3H-1-thia-3,5,8-triazaacenaphthylene-2-carboxamide], the “BTK_I_binding pIC50” value is reported as 7.5.
In the case of Cc1cc(Oc2ccccc2)ccc1N1C(=O)Nc2c(C(=O)N[C@@H]3CCNC(C)C3)sc3nccc1c23 (single isomer, unassigned) [Example 435, 5-(*R)-(2-Methyl-4-phenoxyphenyl)-N-((4*R)-2-methylpiperidin-4-yl)-4-oxo-4,5-dihydro-3H-1-thia-3,5,8-triazaacenaphthylene-2-carboxamide], the “BTK_I_binding pIC50” value is reported as 5.9.
CO[C@H]1C[C@@H](NC(=O)c2sc3nccc4c3c2NC(=O)N4c2ccc(Oc3ccccc3)cc2C)CN(C)C1 [Example 312, N-((3R,5S)-5-Methoxy-1-methylpiperidin-3-yl)-5-(2-methyl-4-phenoxyphenyl)-4-oxo-4,5-dihydro-3H-1-thia-3,5,8-triazaacenaphthylene-2-carboxamide] was tested, and the “BTK_I_binding pIC50” value was 5.9.
For O=C(N[C@@H]1CCCNC1)c1sc2nccc3c2c1NC(=O)N3c1cccc(-c2ccccc2)c1 [Example 426, (R)-5-([1,1′-Biphenyl]-3-yl)-4-oxo-N-(piperidin-3-yl)-4,5-dihydro-3H-1-thia-3,5,8-triazaacenaphthylene-2-carboxamide], the “BTK_I_binding pIC50” value was 6.9.
With Cc1cc(Oc2ccccc2)ccc1N1C(=O)Nc2c(C(=O)N[C@@H]3CCCN(C(=O)C(Cl)=CC4CC4)C3)sc3nccc1c23 (mixture of isomers) [Example 402, (R,EZ)—N-(1-(2-Chloro-3-cyclopropylacryloyl)piperidin-3-yl)-5-(2-methyl-4-phenoxyphenyl)-4-oxo-4,5-dihydro-3H-1-thia-3,5,8-triazaacenaphthylene-2-carboxamide] the “BTK_I_binding pIC50” value was 6.5.
In the case of C=CC(=O)N1C[C@H](NC(=O)c2sc3nccc4c3c2NC(=O)N4c2ccc(Oc3ccccc3)cc2)[C@@H](OC)C1 [Example 548, N-((3S,4S)-1-Acryloyl-4-methoxypyrrolidin-3-yl)-4-oxo-5-(4-phenoxyphenyl)-4,5-dihydro-3H-1-thia-3,5,8-triazaacenaphthylene-2-carboxamide], the “BTK_I_binding pIC50” value is reported as 6.9.
CN1CCC[C@@H](NC(=O)c2sc3nccc4c3c2NC(=O)N4c2cccc(-c3ccccc3)c2)C1 [Example 552, (R)-5-([1,1′-Biphenyl]-3-yl)-N-(1-methylpiperidin-3-yl)-4-oxo-4,5-dihydro-3H-1-thia-3,5,8-triazaacenaphthylene-2-carboxamide] was tested, and the “BTK_I_binding pIC50” value was 6.8.

Same assay, conditions: unphosphorylated-BTK kinase domain, 50 nM Tracer 236, 60 minutes; pIC50 = negative log of the IC50 in molar; read-out: BTK_I_binding pIC50 (converted)
With [2H]C([2H])([2H])N1CCC[C@@H](NC(=O)c2sc3nccc4c3c2NC(=O)N4c2ccc(Oc3ccccc3)cc2C)C1 (single isomer, unassigned) [Example 535, (R)-5-(*S)-(2-Methyl-4-phenoxyphenyl)-N-(1-trideuteriomethylpiperidin-3-yl)-4-oxo-4,5-dihydro-3H-1-thia-3,5,8-triazaacenaphthylene-2-carboxamide] the IC50 was 31.6 nM.

Same assay, conditions: unphosphorylated-BTK kinase domain, 60 minutes incubation, 50 nM Tracer 236; pIC50 = negative log of the IC50 in molar
COc1ccccc1Oc1ccc(N2C(=O)Nc3c(C(=O)NC4CCCN(C)C4)sc4nccc2c34)c(C)c1 (stereo not drawn) [Example 907, 5-(4-(2-Methoxyphenoxy)-2-methylphenyl)-N-(1-methylpiperidin-3-yl)-4-oxo-4,5-dihydro-3H-1-thia-3,5,8-triazaacenaphthylene-2-carboxamide] was tested, and the “BTK_I_binding pIC50” value was 6.7.
